According to patent US10196701B2, “Hepatitis B virus capsid assembly” (The Penn State Research Foundation, priority 2015, dated 2019):

Assays:
[1] = test system: HBc CTD; experiment: Mobility of unassembled HBc on agarose gel (CTD phosphorylation state) and HBc protein levels in RRL; format: biochemical, Hepatitis B virus; conditions: for mobility upshift on the agarose gel of WT HBc: kinase inhibitors added at beginning of translation, ERKI 310 μM, Bisindo 40 μM; for mobility upshift on the agarose gel of WT HBc / C149 mobility on the agarose gel: Rosc 250 μM; for C149 mobility on the agarose gel: kinase inhibitors
Experimental: (§1) The TNT Coupled Rabbit Reticulocyte Lysate (RRL) in vitro translation system (Promega) was used to express the HBc proteins as recommended by the manufacturer's protocol. In vitro translated proteins were labeled by ^35S methionine. The translation reaction mix contained ca. 125 mM KCI and 2.5 mM Mg^++ (Promega).
(§2) Unless specifically indicated otherwise, the general assembly reactions included 1 to 3 microL of translation products per 10 microL final reaction volume in 1× buffer 3 (100 mM NaCl, 50 mM Tris-HCl, 10 mM MgCl2, 1 mM DTT, pH 7.9; New England Biolabs) supplemented with 1×EDTA-free protease inhibitor cocktail (Roche) and 0.8 U/μl RNasin Plus RNase Inhibitor (Promega). The reactions were incubated for 16 hrs at 37° C. unless indicated otherwise. Where indicated, additional enzymatic manipulations were performed using the same reaction buffer as above. (1) Exogenous phosphatase treatment. One unit of calf intestinal alkaline phosphatase (CIAP; New England Biolabs) per microliter of the final reaction volume was added at the end of translation and incubated for 16 hours at 37° C. (2) Kinase inhibitor treatment. […] The final concentration of DMSO in all reactions was 1% (i.e., kinase inhibitor stocks were always diluted 100-fold into the translation or assembly reactions). (3) Phosphatase inhibitor treatment. A cocktail of non-specific phosphatase inhibitors (10 mM NaF, 50 mM β-glycerophosphate, 10 mM sodium pyrophosphate, and 2 mM sodium orthovanadate; all final concentrations) were added at the end of the translation and incubated for 16 hours at 37° C. Alternatively, okadaic acid (Sigma) was added at the end of the translation at the indicated concentrations and incubated for 16 hours at 37° C. (4) RNase A digestion. RNase A (100 μg/ml final concentration) was added at the end of the translation and incubated for 16 hour at 37° C., or added at the end of the 16 hr assembly reaction and incubated for another one hr.
(§3) ^35S-labeled translation reactions were resolved by 1% agarose gel electrophoresis (100 V for ˜3 hours), using 6×DNA Loading Buffer Blue (New England Biolabs). The gels were then soaked in 10×SSC (1.5 M NaCl, 150 mM sodium citrate, pH 7.0) for approximately 30 minutes and transferred overnight to nitrocellulose membrane by capillary transfer. The next day the membranes were UV cross-linked and dried in a vacuum oven for 2 hours. The translation products were analyzed by autoradiography and Western blotting with the rabbit polyclonal anti-HBcAg (Dako) or mouse monoclonal anti-woodchuck hepatitis virus core protein (Ning X, et al. (2011) PLoS pathogens 7: e1002255).
^35S-labeled translation reactions were resolved by SDS-PAGE on 15% or 12.5% polyacrylamide gels. The resolved proteins were transferred to PVDF membrane and detected by autoradiography or Western blotting as above.

[2] = test system: HBc (HBV capsid assembly); experiment: In vitro capsid assembly in RRL, agarose gel electrophoresis; format: biochemical, Hepatitis B virus
Experimental: as §1, §2, §3

[3] = test system: PP1; conditions: cellular serine/threonine phosphatase PP1; Cohen P, et al. (1990); cited from earlier work
[4] = test system: PP2A; conditions: cellular serine/threonine phosphatase PP2A; Cohen P, et al. (1990); cited from earlier work
[5] = phosphatase inhibitor added during assembly incubation, OA 50 nM
[6] = kinase inhibitors, Rosc 250 μM, CDK2I 250 μM
[7] = RNase pretreatment before assembly
[8] = RNase treatment before assembly
[9] = CIAP treatment following translation

## CN(C)CCCn1cc(C2=C(c3c[nH]c4ccccc34)C(=O)NC2=O)c2ccccc21 [PKC inhibitor, Bisindolymaleimide I]
[1]; CDK2I 250 μM
  mobility upshift on the agarose gel of WT HBc: no effect

## C=C1[C@@H](O)[C@@H]2O[C@]3(CC[C@H](/C=C/[C@@H](C)[C@@H]4CC(C)=C[C@@]5(O[C@H](C[C@@](C)(O)C(=O)O)CC[C@H]5O)O4)O3)CC[C@H]2O[C@@H]1[C@@H](O)C[C@H](C)[C@H]1O[C@@]2(CCCCO2)CC[C@H]1C [OA, okadaic acid]
[1]; phosphatase inhibitor added during overnight 37° C. incubation following translation, OA 50 nM
  mobility upshift of the WT HBc on the agarose gel: completely blocked
[1]; titration of OA, overnight incubation at 37° C.
  OA concentration that could significantly affect the dephosphorylation-induced mobility upshift of the WT HBc: 4 nM
[2]; [5]
  capsid assembly by 3A: not inhibited
  capsid assembly by 3E: prevented assembly
[3]
  IC50: 15 to 20 nM
[4]
  IC50: ~0.1 nM

## CC[C@H](CO)Nc1nc(NCc2ccccc2)c2ncn(C(C)C)c2n1 [roscovitine, Roscovitine]
[1]; CDK2I 250 μM
  C149 mobility on the agarose gel: no effect
[2]; [6]
  7E assembly: little effect

## Nc1[nH]nc2nnc(-c3c(-c4ccccc4)nn4ccccc34)cc12 [ERK inhibitor, Erk inhibitor II]
[1]; CDK2I 250 μM
  mobility upshift on the agarose gel of WT HBc: no effect

## COc1ccc(CNc2nc(N(CCO)CCO)nc3c2ncn3C(C)C)cc1 [CDK2 inhibitor, CDK2 inhibitor III]
[1]; SDS-PAGE, CDK2I 250 μM
  levels of the WT and mutant HBc proteins: increase
[1]; CDK2I 250 μM
  mobility upshift on the agarose gel of WT HBc: induced a mobility upshift
  C149 mobility on the agarose gel: no effect
[2]; [6]
  7E assembly: little effect

B1: RNase: RNase A, 100 μg/ml final concentration (protein, UniProt P61823 27-150, looked up)
Ribonuclease pancreatic: KETAAAKFERQHMDSSTSAASSSNYCNQMMKSRNLTKDRCKPVNTFVHESLADVQAVCSQKNVACKNGQTNCYQSYSTMSITDCRETGSSKYPNCAYKTTQANKHIIVACEGNPYVPVHFDASV
[2]; [7]
  assembly of the 3A mutant: no effect
  assembly of the 3E mutant: prevented assembly
[2]; RNase treatment before CIAP treatment, RNase A 100 μg/ml
  WT HBc capsid assembly: prevented capsid assembly
[2]; [8]
  7A assembly: abolished
  7E assembly: no effect
[2]; RNase treatment following the completion of capsid assembly
  assembled capsids (WT and mutants): little effect

B2: CIAP: calf intestinal alkaline phosphatase, exogenous phosphatase (New England Biolabs) (protein, UniProt P19111 20-506, looked up)
Intestinal-type alkaline …: LVPVEEEDPAFWNRQAAQALDVAKKLQPIQTAAKNVILFLGDGMGVPTVTATRILKGQMNGKLGPETPLAMDQFPYVALSKTYNVDRQVPDSAGTATAYLCGVKGNYRTIGVSAAARYNQCKTTRGNEVTSVMNRAKKAGKSVGVVTTTRVQHASPAGAYAHTVNRNWYSDADLPADAQMNGCQDIAAQLVNNMDIDVILGGGRKYMFPVGTPDPEYPDDASVNGVRKRKQNLVQAWQAKHQGAQYVWNRTALLQAADDSSVTHLMGLFEPADMKYNVQQDHTKDPTLQEMTEVALRVVSRNPRGFYLFVEGGRIDHGHHDDKAYMALTEAGMFDNAIAKANELTSELDTLILVTADHSHVFSFGGYTLRGTSIFGLAPSKALDSKSYTSILYGNGPGYALGGGSRPDVNDSTSEDPSYQQQAAVPQASETHGGEDVAVFARGPQAHLVHGVEEETFVAHIMAFAGCVEPYTDCNLPAPTTATSIPD
[1]; [9]
  mobility of the C149 truncation mutant: did not affect the mobility
[2]; CIAP 1 unit per microliter, 16 hours at 37° C. following translation
  assembly of the WT HBc: induced the assembly
[2]; [9]
  assembly of the 3A mutant: did not have a significant effect
  assembly of the 3E mutant: did not have a significant effect
